# Measured values from US6541630B1 (priority 1997, dated 2003).
row,SMILES,melting point
1,Cc1cc2ncn(C)c(=O)c2s1,188 to 190 °C
2,Cc1sc2c(=O)[nH]cnc2c1Br,320 to 322 °C
3,CC(=O)Nn1cnc2c(Br)csc2c1=O,273 °C
4,CC(=O)On1cnc2c(Br)csc2c1=O,159 to 162 °C

# Next, values leading:
row,melting point,SMILES
1,181 to 183 °C,"Nn1cnc2c(Br)csc2c1=O [Compound 6d, 3-Amino-7-bromo-3,4-dihydrothieno[3,2-d]pyrimidin-4-one]"
2,301 to 304 °C,"O=c1[nH]cnc2sc(Br)cc12 [Compound 6g, 6-Bromo-3,4-dihydrothieno[2,3-d]pyrimidine-4-one]"
3,238 to 240 °C,"O=c1[nH]cnc2cc(Br)sc12 [Compound 8a, 6-Bromo-3,4-dihydrothieno[3,2-d]pyrimidin-4-one]"
